Values quoted from earlier work in Sander's compilation of Henry's law constants.
Where “and” joins values, the source holds several entries; their conditions need not be identical. Identical values can stand only once. Values belong to the compound of their own block, whether it stands above or below them.

Assay: Henry solubility constant Hcp at 298.15 K (mol/(m3 Pa))
Details: cited value
[1] = reference: Barcelo and Hennion (1997)
[2] = reference: Mackay et al. (1995)
[3] = reference: Burkholder et al. (2015)
[4] = reference: Burkholder et al. (2019)
[5] = reference: Sander et al. (2006)
[6] = reference: Sander et al. (2011)
[7] = reference: Meynier et al. (2003)
[8] = reference: Mackay et al. (1992b)
[9] = reference: Fogg and Sangster (2003)

SMILES: ClC1=C(Cl)[C@]2(Cl)[C@@H]3[C@@H]4C[C@@H]([C@H]5O[C@@H]45)[C@@H]3[C@@]1(Cl)C2(Cl)Cl [dieldrin]
Henry solubility constant Hcp [1]: 0.0088

SMILES: CCCCN(CC)C(=O)SCCC [pebulate]
Henry solubility constant Hcp [1]: 0.00084

SMILES: Nc1ccc(-c2ccc(N)cc2)cc1 [benzidine]
Henry solubility constant Hcp [2]: 25

SMILES: CCCC[N+](=O)[O-] [1-nitrobutane]
Henry solubility constant Hcp (reference: Brockbank (2013)): 0.076

SMILES: CC(C)=CC1C(C(=O)OCc2cccc(Oc3ccccc3)c2)C1(C)C (configuration not stated) [phenothrin]
Henry solubility constant Hcp (reference: MacBean (2012b)): 1.5

SMILES: Cc1nnc(-c2ccccc2)c(=O)n1N [metamitron]
Henry solubility constant Hcp [1]: 1e+06

Henry solubility constant Hcp (reference: Brockbank (2013)): 1.3
SMILES: COCCOC [1,2-dimethoxyethane]

SMILES: CCCC [butane]
Henry solubility constant Hcp [3]: 1.2e-05
Henry solubility constant Hcp [4]: 1.2e-05
Henry solubility constant Hcp (reference: Deno and Berkheimer (1960)): 1.1e-05
Henry solubility constant Hcp (reference: Hayduk (1986)): 1.2e-05
Henry solubility constant Hcp [5]: 1.2e-05
Henry solubility constant Hcp [6]: 1.2e-05

Henry solubility constant Hcp (reference: Brockbank (2013)): 0.066
SMILES: CCCCC=O [pentanal]

SMILES: CCOC(=O)COc1cc(-c2nn(C)c(OC(F)F)c2Cl)c(F)cc1Cl [pyraflufen-ethyl]
Henry solubility constant Hcp (reference: MacBean (2012b)): 12000

Henry solubility constant Hcp (reference: Brockbank (2013)): 6.4e-06
SMILES: CCCC(C)C [2-methylpentane]

SMILES: CNC(=O)ON=C(C)SC [methomyl]
Henry solubility constant Hcp [1]: 150

Henry solubility constant Hcp (reference: Brockbank (2013)): 0.014
SMILES: CC(C)(C)OC=O [(1,1-dimethylethyl)-methanoate]

Henry solubility constant Hcp (reference: Brockbank (2013)): 0.2
SMILES: CCCCCCCCCCO [1-decanol]

SMILES: [CH3][Hg][Cl] [chloromethylmercury]
Henry solubility constant Hcp (reference: WHO (1990)): 20

Henry solubility constant Hcp (reference: Brockbank (2013)): 0.29
SMILES: COC(=O)c1ccccc1 [methyl benzoate]

SMILES: FC(F)(F)F [tetrafluoromethane]
Henry solubility constant Hcp [3]: 2.1e-06
Henry solubility constant Hcp [4]: 2.1e-06
Henry solubility constant Hcp [6]: 2.1e-06

Henry solubility constant Hcp (reference: Brockbank (2013)): 0.025
Henry solubility constant Hcp [7]: 0.025
SMILES: CCCCCOC(C)=O [pentyl ethanoate]

Henry solubility constant Hcp (reference: Brockbank (2013)): 0.11
Henry solubility constant Hcp (reference: Howard (1993)): 0.1
SMILES: CCCCC(C)=O [2-hexanone]

SMILES: COC(C)=O [methyl ethanoate]
Henry solubility constant Hcp (reference: Brockbank (2013)): 0.085
Henry solubility constant Hcp [4]: 0.085

SMILES: ClCCCCl [1,3-dichloropropane]
Henry solubility constant Hcp (reference: Brockbank (2013)): 0.012
Henry solubility constant Hcp [3]: 0.01
Henry solubility constant Hcp [4]: 0.01

SMILES: C=COC(C)=O [ethenyl ethanoate]
Henry solubility constant Hcp (reference: Brockbank (2013)): 0.02
Henry solubility constant Hcp [3]: 0.02
Henry solubility constant Hcp [4]: 0.02
Henry solubility constant Hcp (reference: Goldstein (1982)): 0.017

SMILES: O=C(NC(=O)c1c(F)cccc1F)Nc1ccc(Cl)cc1 [diflubenzuron]
Henry solubility constant Hcp [1]: 21

SMILES: Clc1ccc(-c2ccc(Cl)cc2)cc1 [4,4'-dichlorobiphenyl]
Henry solubility constant Hcp (reference: Murphy et al. (1983b)): 0.033

SMILES: c1ccc2cc3cc4ccccc4cc3cc2c1 [naphthacene]
Henry solubility constant Hcp [8]: 250

SMILES: ClC1=C(Cl)[C@]2(Cl)C3C(Cl)C(Cl)CC3[C@@]1(Cl)C2(Cl)Cl (some centres not stated) [chlordane]
Henry solubility constant Hcp [1]: 0.0011

SMILES: CCCCI [1-iodobutane]
Henry solubility constant Hcp (reference: Brockbank (2013)): 0.00069

Henry solubility constant Hcp (reference: Brockbank (2013)): 0.021
Henry solubility constant Hcp [9]: 0.022
Henry solubility constant Hcp (reference: Goldstein (1982)): 0.021
Henry solubility constant Hcp (reference: McCarty (1980)): 0.027
SMILES: c1ccc2ccccc2c1 [naphthalene]

SMILES: O=[N+]([O-])c1ccc(Cl)cc1 [4-chloronitrobenzene]
Henry solubility constant Hcp (reference: Brockbank (2013)): 0.64

SMILES: CC(=O)C(C)(C)C [3,3-dimethyl-2-butanone]
Henry solubility constant Hcp (reference: Brockbank (2013)): 0.043

SMILES: Oc1ccccc1Cl [2-hydroxychlorobenzene]
Henry solubility constant Hcp (reference: Goldstein (1982)): 1.2
Henry solubility constant Hcp (reference: Howard (1989)): 18

SMILES: ClC=C(Cl)Cl [trichloroethene]
Henry solubility constant Hcp (reference: Brockbank (2013)): 0.001
Henry solubility constant Hcp [3]: 0.0011
Henry solubility constant Hcp [4]: 0.0011
Henry solubility constant Hcp [9]: 0.001
Henry solubility constant Hcp (reference: Goldstein (1982)): 0.00088

SMILES: Cc1ccc2ccccc2c1 [2-methylnaphthalene]
Henry solubility constant Hcp (reference: Brockbank (2013)): 0.02
Henry solubility constant Hcp [9]: 0.018
Henry solubility constant Hcp [8]: 0.02

SMILES: Cc1ccc(C)cc1 [1,4-dimethylbenzene]
Henry solubility constant Hcp (reference: Brockbank (2013)): 0.0014
Henry solubility constant Hcp [9]: 0.0019
Henry solubility constant Hcp (reference: Foster et al. (1994)): 0.0014

SMILES: CN=C=S [methyl isothiocyanate]
Henry solubility constant Hcp [3]: 0.17
Henry solubility constant Hcp [4]: 0.17
Henry solubility constant Hcp [6]: 0.17

Henry solubility constant Hcp (reference: Brockbank (2013)): 7.2e-06
SMILES: CCCCC [pentane]

SMILES: Nc1ccccc1Cl [1-amino-2-chlorobenzene]
Henry solubility constant Hcp (reference: Brockbank (2013)): 1.9

Henry solubility constant Hcp (reference: Brockbank (2013)): 0.026
SMILES: CCCOC(=O)CC [propyl propanoate]

SMILES: Cc1ccc(N)c(C)c1 [2,4-dimethylbenzenamine]
Henry solubility constant Hcp (reference: Brockbank (2013)): 2.8

SMILES: CN1CSC(=S)N(C)C1 [dazomet]
Henry solubility constant Hcp (reference: MacBean (2012b)): 37000

Henry solubility constant Hcp (reference: Brockbank (2013)): 0.029
Henry solubility constant Hcp (reference: Hine and Weimar (1965)): 0.0023
SMILES: COc1ccccc1 [methoxybenzene]

Henry solubility constant Hcp (reference: Brockbank (2013)): 3e-05
SMILES: C=CCCC [1-pentene]

SMILES: c1cc2c3c(cccc3c1)CC2 [acenaphthene]
Henry solubility constant Hcp (reference: Brockbank (2013)): 0.072
Henry solubility constant Hcp [9]: 0.055
Henry solubility constant Hcp (reference: Goldstein (1982)): 0.041
Henry solubility constant Hcp (reference: HSDB (2015)): 0.064
Henry solubility constant Hcp (reference: McCarty (1980)): 0.052

Henry solubility constant Hcp [7]: 0.2
SMILES: CCC/C=C/C=O [(E)-2-hexenal]

Henry solubility constant Hcp (reference: Brockbank (2013)): 1.6
SMILES: COC(=O)c1ccccc1O [2-hydroxybenzoic acid methyl ester]

SMILES: ClC(Cl)C(Cl)(Cl)Cl [pentachloroethane]
Henry solubility constant Hcp (reference: Brockbank (2013)): 0.0042
Henry solubility constant Hcp [4]: 0.0041

SMILES: CN(Cl)Cl [N,N-dichloromethylamine]
Henry solubility constant Hcp [3]: 0.0033
Henry solubility constant Hcp [4]: 0.0033

SMILES: CCCCCl [1-chlorobutane]
Henry solubility constant Hcp (reference: Brockbank (2013)): 0.00056

SMILES: ClC1=C(Cl)C2(Cl)C3C(Cl)C=CC3C1(Cl)C2(Cl)Cl (configuration not stated) [heptachlor]
Henry solubility constant Hcp [1]: 8.8e-05
Henry solubility constant Hcp (reference: McCarty (1980)): 0.0043
Henry solubility constant Hcp (reference: Meylan and Howard (1991)): 0.0067

SMILES: CCOP(=S)(OCC)Oc1ccc([N+](=O)[O-])cc1 [parathion]
Henry solubility constant Hcp [1]: 0.8
Henry solubility constant Hcp (reference: MacBean (2012b)): 33

SMILES: O=CC(=O)O [oxoethanoic acid]
Henry solubility constant Hcp [6]: 110

Henry solubility constant Hcp (reference: Brockbank (2013)): 5.9e-06
SMILES: CCC(C)CC [3-methylpentane]

SMILES: CN(C)N=O [N-nitrosodimethylamine]
Henry solubility constant Hcp [3]: 3.9
Henry solubility constant Hcp [4]: 3.9
Henry solubility constant Hcp [2]: 0.3

Henry solubility constant Hcp (reference: Brockbank (2013)): 0.53
SMILES: CCCCCCCO [1-heptanol]

Henry solubility constant Hcp [7]: 0.027
SMILES: CCCCC(=O)OCC [ethyl pentanoate]

SMILES: CCNc1nc(NC(C)C)nc(SC)n1 [ametryn]
Henry solubility constant Hcp [1]: 82

SMILES: Cc1ccc(NC(=O)N(C)C)cc1Cl [chlortoluron]
Henry solubility constant Hcp [1]: 190

SMILES: [H] [hydrogen atom]
Henry solubility constant Hcp [3]: 2.6e-06
Henry solubility constant Hcp [4]: 2.6e-06
Henry solubility constant Hcp [5]: 2.6e-06
Henry solubility constant Hcp [6]: 2.6e-06

SMILES: Cc1cc(C)cc(C)c1 [1,3,5-trimethylbenzene]
Henry solubility constant Hcp (reference: Brockbank (2013)): 0.0012

SMILES: CNC(=O)O/N=C/C(C)(C)SC [aldicarb]
Henry solubility constant Hcp [1]: 31

SMILES: CCCOC=O [propyl methanoate]
Henry solubility constant Hcp (reference: Brockbank (2013)): 0.031
Henry solubility constant Hcp [3]: 0.026
Henry solubility constant Hcp [4]: 0.026
Henry solubility constant Hcp [6]: 0.026

SMILES: CCCCc1ccccc1 [butylbenzene]
Henry solubility constant Hcp (reference: Brockbank (2013)): 0.00071

Henry solubility constant Hcp (reference: Goldstein (1982)): 140
Henry solubility constant Hcp (reference: Howard (1989)): 140
SMILES: O=C(O)c1ccccc1 [benzenecarboxylic acid]

SMILES: II [iodine (molecular)]
Henry solubility constant Hcp (reference: Berdnikov and Bazhin (1970)): 0.031
Henry solubility constant Hcp (reference: Palmer et al. (1985)): 0.03
Henry solubility constant Hcp (reference: Thompson and Zafiriou (1983)): 0.011

Henry solubility constant Hcp (reference: Brockbank (2013)): 0.0024
Henry solubility constant Hcp [9]: 0.0027
SMILES: Cc1cccc(C)c1C [1,2,3-trimethylbenzene]

SMILES: CCOCC [diethyl ether]
Henry solubility constant Hcp (reference: Brockbank (2013)): 0.0099
Henry solubility constant Hcp [3]: 0.02
Henry solubility constant Hcp [4]: 0.0099

SMILES: CCCN(CCC)N=O [N-nitrosodipropylamine]
Henry solubility constant Hcp [2]: 1.6

SMILES: CF [fluoromethane]
Henry solubility constant Hcp (reference: Brockbank (2013)): 0.00062
Henry solubility constant Hcp [3]: 0.00061
Henry solubility constant Hcp [4]: 0.00061
Henry solubility constant Hcp [5]: 0.00061
Henry solubility constant Hcp [6]: 0.00061

Henry solubility constant Hcp (reference: Brockbank (2013)): 0.0013
SMILES: CC(C)S [2-propanethiol]

Henry solubility constant Hcp [1]: 8.2
SMILES: CN(C)C(=O)Nc1ccc(Cl)c(Cl)c1 [diuron]

Henry solubility constant Hcp (reference: Brockbank (2013)): 0.0036
SMILES: Cc1ccc(Br)cc1 [1-bromo-4-methylbenzene]

SMILES: CCCCCCOC(=O)c1ccccc1C(=O)OCCCCCC [dihexyl phthalate]
Henry solubility constant Hcp (reference: Brockbank (2013)): 8.3

SMILES: CCOP(=S)(NC(C)C)Oc1ccccc1C(=O)OC(C)C (configuration not stated) [isofenphos]
Henry solubility constant Hcp [1]: 1000
Henry solubility constant Hcp (reference: MacBean (2012b)): 240

Henry solubility constant Hcp (reference: Brockbank (2013)): 0.51
SMILES: CC(C)C(C)O (configuration not stated) [3-methyl-2-butanol]

SMILES: COP(=S)(OC)SCN1C(=O)c2ccccc2C1=O [phosmet]
Henry solubility constant Hcp [1]: 10

SMILES: CC(C)N1C(=O)c2ccccc2NS1(=O)=O [bentazone]
Henry solubility constant Hcp [1]: 130

Henry solubility constant Hcp (reference: Brockbank (2013)): 0.032
SMILES: CCCCCCCC(C)=O [2-nonanone]

SMILES: CC1CO1 (configuration not stated) [1,2-epoxypropane]
Henry solubility constant Hcp (reference: Goldstein (1982)): 0.052 and 0.051

SMILES: CCNc1nc(Cl)nc(NC(C)(C)C#N)n1 [cyanazine]
Henry solubility constant Hcp [1]: 33000

Henry solubility constant Hcp (reference: Clever (1979b)): 4.3e-05
SMILES: [Xe] [xenon]

SMILES: O=C1c2ccccc2C(=O)N1SC(Cl)(Cl)Cl [folpet]
Henry solubility constant Hcp [1]: 0.026

SMILES: O=C(O)CF [fluoroethanoic acid]
Henry solubility constant Hcp [3]: 800
Henry solubility constant Hcp [4]: 800
Henry solubility constant Hcp [6]: 800
